The record followed here is patent US10144742B2 (Millennium Pharmaceuticals, Inc., priority 2014, dated 2018).

The assay deals with hNAMPT protein (Homo sapiens (Human), UniProt P43490). Nature of the assay: NAMPT enzyme assay (TR-FRET/HTRF, BodiPY ligand, anti 6His-Tb). It counts as binding. To be noted: for IC50: NAMPT IC50 range class, read-out: IC50; for inhibition at 1 µM: read-out: Percent Inhibition. The source says:
As discussed above, the invention provides compounds that are useful as inhibitors of the enzyme NAMPT. The NAMPT inhibition of a compound of the invention can be measured using a variety of methods known in the art. For example, the ability of a compound of the invention to inhibit NAMPT enzyme activity can be measured using a homogeneous time resolved fluorescence (HTRF) assay using hNAMPT protein and anti 6His-Tb in buffer treated with a compound of the invention (or control e.g., DMSO) and BodiPY ligand. The TR-FRET signal can be measured using a high throughput microplate reader (e.g., Pherastar). Excitation can be carried out at 320 nm. The percent inhibition value at a single concentration of compound of the invention can be calculated relative to a control treated sample. A concentration response curve can be generated for each compound of the invention and the curve fitted to generate an IC50 value. […] Cat. No. […] To this solution is added test compounds or vehicle control (DMSO) and BodiPY ligand (structure below). The plate is shaken for 1-2 min, sealed and incubated for 1 hour at rt in the dark. The TR-FRET signal is measured using BMG Pherastar (Lanthascreen protocol on BMG Pherastar). Excitation was carried out at 320 nm, and the ratio of emission of BodiPY (520 nm) to terbium (486 nm) was determined. Concentration response curves are generated by calculating the excitation increase in test compound-treated samples relative to DMSO-treated controls. For the assay method described above, test compound percent inhibition values at a single concentration are calculated relative to control (DMSO) treated samples. Compound concentration response curves are fitted to generate IC50 values from those curves. One skilled in the art will appreciate that these values generated either as percentage inhibition at a single concentration or IC50 values are subject to experimental variation.
A general note: Time-resolved FRET reads energy transfer from a long-lived donor to a nearby acceptor.

Read-outs that look alike come from different tables or passages of the source.

Chain of hNAMPT protein (P43490 whole entry): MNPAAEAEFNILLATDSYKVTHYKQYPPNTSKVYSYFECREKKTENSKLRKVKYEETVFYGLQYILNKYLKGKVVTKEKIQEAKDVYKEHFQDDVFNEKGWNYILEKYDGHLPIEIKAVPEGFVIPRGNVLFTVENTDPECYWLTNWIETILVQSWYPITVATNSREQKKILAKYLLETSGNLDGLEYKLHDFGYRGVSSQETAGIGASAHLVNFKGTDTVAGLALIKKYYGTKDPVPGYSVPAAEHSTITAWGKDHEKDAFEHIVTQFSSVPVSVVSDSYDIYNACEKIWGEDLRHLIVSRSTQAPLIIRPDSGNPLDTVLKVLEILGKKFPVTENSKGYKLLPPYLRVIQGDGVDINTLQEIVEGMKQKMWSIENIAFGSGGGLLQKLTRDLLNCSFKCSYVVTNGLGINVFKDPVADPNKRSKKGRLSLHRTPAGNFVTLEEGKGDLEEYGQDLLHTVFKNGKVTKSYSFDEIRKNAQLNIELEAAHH

A word on the IC50: it is the concentration that inhibits the measured activity by half. By inhibition is commonly meant the percentage by which the read-out fell short of the control. As to `Cc1ccc(CCCNC(=O)c2ccc3nc(N4CCOCC4)c(-c4ccc(F)cc4)nc3c2)cn1` [Compound I-21, 3-(4-Fluorophenyl)-N-[3-(6-methylpyridin-3-yl)propyl]-2-(morpholin-4-yl)quinoxaline-6-carboxamide], the IC50 was in the range of 500 to 1000 nM and the inhibition at 1 µM was 50%.
In the case of `O=C(c1ccc2nc(-c3ccc(F)cc3)c(-c3ccc(F)cc3)nc2c1)N1CCC(c2cnccn2)C1` (stereo not drawn) [Compound I-40, [2,3-bis(4-fluorophenyl)quinoxalin-6-yl][3-(pyrazin-2-yl)pyrrolidin-1-yl]methanone], the IC50 is 2000 to 10000 nM. For the same molecule, the inhibition at 1 µM (compound concentration 1 μM) is 33%.
For `O=C(NCCc1ncc[nH]1)c1ccc2nc(N3CCC(N4CCOCC4)CC3)c(-c3ccccc3)nc2c1` [Compound I-71, N-[2-(1H-imidazol-2-yl)ethyl]-2-[4-(morpholin-4-yl)piperidin-1-yl]-3-phenylquinoxaline-6-carboxamide], in that order: 100 to 500 nM and 81%.
For `O=C(c1ccc2nc(-c3ccc(F)cc3)c(-c3ccc(F)cc3)nc2c1)N1CCC(c2ccncc2)C1` (stereo not drawn) [Compound I-98, [2,3-bis(4-fluorophenyl)quinoxalin-6-yl][3-(pyridin-4-yl)pyrrolidin-1-yl]methanone], in that order: 1000 to 2000 nM and 41%.
On to `O=C(c1ccc2nc(-c3ccc(F)cc3)c(-c3ccc(F)cc3)nc2c1)N1CC(c2ccccn2)C1` [Compound I-110, [2,3-bis(4-fluorophenyl)quinoxalin-6-yl][3-(pyridin-2-yl)azetidin-1-yl]methanone], for which the IC50 was 500 to 1000 nM. In addition, the inhibition at 1 µM (compound concentration 1 μM) stood at 66%.
As for `O=C(c1ccc2nc(-c3ccc(F)cc3)c(-c3ccc(F)cc3)nc2c1)N1CCc2cnccc2C1` [Compound I-160, [2,3-bis(4-fluorophenyl)quinoxalin-6-yl](3,4-dihydro-2,6-naphthyridin-2(1H)-yl)methanone], the IC50 lay within 2000 to 10000 nM. In addition, the inhibition at 1 µM (compound concentration 1 μM) was determined as 45%.
For `Cc1ccc(CCCNC(=O)c2ccc3nc(N4CCCCC4)c(-c4ccc(F)cc4)nc3c2)cn1` [Compound I-185, 3-(4-fluorophenyl)-N-[3-(6-methylpyridin-3-yl)propyl]-2-(piperidin-1-yl)quinoxaline-6-carboxamide], in that order: 500 to 1000 nM and 57%.
The matching figures for `O=C(c1ccc2nc(-c3ccc(F)cc3)c(-c3ccc(F)cc3)nc2c1)N1CCC(c2ccncc2)CC1` [Compound I-186, [2,3-bis(4-fluorophenyl)quinoxalin-6-yl][4-(pyridin-4-yl)piperidin-1-yl]methanone]: 2000 to 10000 nM and 19%.
For `O=C(c1ccc2nc(-c3ccc(F)cc3)c(-c3ccc(F)cc3)nc2c1)N1CCCC1Cc1cccnc1` (stereo not drawn) [Compound I-246, [2,3-bis(4-fluorophenyl)quinoxalin-6-yl][2-(pyridin-3-ylmethyl)pyrrolidin-1-yl]methanone], in that order: 2000 to 10000 nM and 30%.
For `O=C(c1ccc2nc(-c3ccc(F)cc3)c(-c3ccc(F)cc3)nc2c1)N1CC(n2cccn2)C1` [Compound I-249, [2,3-bis(4-fluorophenyl)quinoxalin-6-yl][3-(1H-pyrazol-1-yl)azetidin-1-yl]methanone], the IC50 is 1000 to 2000 nM. For the same molecule, the inhibition at 1 µM (compound concentration 1 μM) came to 45%.
For `O=C(NCCCn1ccnc1)c1ccc2nc(-c3ccccc3Cl)c(-c3ccccc3Cl)nc2c1` [Compound I-260, 2,3-bis(2-chlorophenyl)-N-[3-(1H-imidazol-1-yl)propyl]quinoxaline-6-carboxamide], in that order: 2000 to 10000 nM and 19%.
For the molecule `O=C(NCCc1c[nH]c2ccccc12)c1ccc2nc(-c3ccc(F)cc3)c(-c3ccc(F)cc3)nc2c1` [Compound I-293, 2,3-bis(4-fluorophenyl)-N-[2-(1H-indol-3-yl)ethyl]quinoxaline-6-carboxamide], the IC50 lay within 2000 to 10000 nM. The inhibition at 1 µM (compound concentration 1 μM) turned out to be 26%.
